Our source for the inhibition and IC50 values is patent publication US11149037B2, “Pyrazole MAGL inhibitors” (H. Lundbeck A/S, priority 2017, dated 2021).

The structures appear in SMILES notation.

Common to all, as to type: biochemical
For assay [1], the target named is MAGL (Homo sapiens (Human), UniProt Q99685). The assay is described as follows: In vitro competitive activity-based protein profiling, human proteomes (prefrontal cortex or PC3 cell membrane fractions). Conditions: human proteome; for inhibition at 1 µM: read-out: MAGL % inh. 1 μM (human); for inhibition at 10 µM: read-out: MAGL % inh. (human) @ 10 μM. The method in brief:
(§1)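 Activity of MAGL and FAAH was quantified from fluorescent gel band intensities. Beforehand, inhibitors at several concentrations competed against subsequent probe labelling (FP-Rh, JW912 or HT-01) in species-matched proteomes, each step 30 min at 37° C.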

Assay [2] addresses FAAH (Homo sapiens (Human), UniProt O00519). Described as above. Conditions: human proteome; for inhibition at 1 µM: read-out: FAAH % inh. 1 μM (human). In a few lines:
as §1

In assay [3] the target is MAGL (Mus musculus (Mouse), UniProt O35678). The assay is described as follows: In vitro competitive activity-based protein profiling, mouse proteomes (brain membrane fraction or cell lysates). Conditions: mouse proteome, read-out: MAGL % inh. 1 μM (mouse). In a few lines:
as §1

Assay [4] concerns the target FAAH (Mus musculus (Mouse), UniProt O08914). The description is as above. Conditions: mouse proteome, read-out: FAAH % inh. 1 μM (mouse). In a few lines:
as §1

MAGL (Homo sapiens (Human), UniProt Q99685), sequence (Q99685 whole entry): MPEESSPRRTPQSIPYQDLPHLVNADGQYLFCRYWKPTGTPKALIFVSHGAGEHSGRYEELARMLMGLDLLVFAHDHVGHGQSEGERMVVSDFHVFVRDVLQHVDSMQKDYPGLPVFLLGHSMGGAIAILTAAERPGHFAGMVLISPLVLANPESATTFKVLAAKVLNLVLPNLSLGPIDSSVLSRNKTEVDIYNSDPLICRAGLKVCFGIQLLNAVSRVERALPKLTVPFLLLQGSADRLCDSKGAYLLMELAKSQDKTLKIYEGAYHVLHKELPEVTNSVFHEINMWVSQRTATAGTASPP
MAGL (Mus musculus (Mouse), UniProt O35678), sequence (O35678 whole entry): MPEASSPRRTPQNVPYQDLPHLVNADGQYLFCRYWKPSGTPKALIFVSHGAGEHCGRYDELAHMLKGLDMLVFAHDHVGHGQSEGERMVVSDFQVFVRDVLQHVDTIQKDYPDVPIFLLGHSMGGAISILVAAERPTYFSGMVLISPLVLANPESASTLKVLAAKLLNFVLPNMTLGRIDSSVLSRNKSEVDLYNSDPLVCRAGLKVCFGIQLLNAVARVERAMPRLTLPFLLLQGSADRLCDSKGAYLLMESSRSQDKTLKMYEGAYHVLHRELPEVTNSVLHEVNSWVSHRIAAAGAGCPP
FAAH (Mus musculus (Mouse), UniProt O08914), sequence (O08914 whole entry): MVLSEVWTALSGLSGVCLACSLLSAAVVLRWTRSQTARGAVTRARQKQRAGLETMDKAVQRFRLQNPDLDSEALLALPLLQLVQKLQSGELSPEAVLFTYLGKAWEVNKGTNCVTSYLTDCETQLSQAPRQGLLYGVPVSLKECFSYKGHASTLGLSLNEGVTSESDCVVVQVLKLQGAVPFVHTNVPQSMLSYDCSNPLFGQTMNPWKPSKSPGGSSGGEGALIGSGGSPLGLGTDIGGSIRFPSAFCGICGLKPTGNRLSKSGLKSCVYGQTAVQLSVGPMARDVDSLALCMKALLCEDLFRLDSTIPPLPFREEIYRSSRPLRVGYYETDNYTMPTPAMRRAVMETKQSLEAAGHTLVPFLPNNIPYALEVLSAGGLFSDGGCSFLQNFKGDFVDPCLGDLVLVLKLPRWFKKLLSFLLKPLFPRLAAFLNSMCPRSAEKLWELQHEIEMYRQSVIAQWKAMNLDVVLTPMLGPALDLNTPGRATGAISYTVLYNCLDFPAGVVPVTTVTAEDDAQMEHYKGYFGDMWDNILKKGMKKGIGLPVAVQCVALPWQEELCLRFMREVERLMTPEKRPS
FAAH (Homo sapiens (Human), UniProt O00519), sequence (O00519 whole entry): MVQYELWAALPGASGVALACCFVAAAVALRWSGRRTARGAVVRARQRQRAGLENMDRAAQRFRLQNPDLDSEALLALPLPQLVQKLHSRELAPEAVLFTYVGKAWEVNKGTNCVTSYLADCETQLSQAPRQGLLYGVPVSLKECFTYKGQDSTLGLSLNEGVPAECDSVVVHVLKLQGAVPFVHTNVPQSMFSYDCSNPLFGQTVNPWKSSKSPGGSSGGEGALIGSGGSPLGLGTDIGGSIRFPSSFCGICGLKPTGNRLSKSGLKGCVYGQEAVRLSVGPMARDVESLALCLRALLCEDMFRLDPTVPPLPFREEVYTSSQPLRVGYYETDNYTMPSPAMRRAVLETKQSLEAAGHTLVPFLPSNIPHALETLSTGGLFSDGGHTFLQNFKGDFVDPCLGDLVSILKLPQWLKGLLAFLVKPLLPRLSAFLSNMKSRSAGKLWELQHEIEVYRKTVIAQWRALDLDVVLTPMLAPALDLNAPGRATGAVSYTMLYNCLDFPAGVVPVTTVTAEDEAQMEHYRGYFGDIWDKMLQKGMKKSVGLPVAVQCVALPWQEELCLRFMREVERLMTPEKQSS

For the compound `CS(=O)(=O)Nc1ccn(C(=O)N2CCC3(CCN(Cc4ccc(N5CCCC5)cc4C(F)(F)F)C3)CC2)n1` [Example 48, N-(1-(2-(4-(Pyrrolidin-1-yl)-2-(trifluoromethyl)benzyl)-2,8-diazaspiro[4.5]decane-8-carbonyl)-1H-pyrazol-3-yl)methanesulfonamide], the inhibition at 50 µM in assay [1] (50 μM, read-out: MAGL % inh. (human) @ 50 μM) lay in the range of 25 to 50%. Besides, the inhibition at 1 µM in assay [2], in assay [3] and in assay [4] was 0 to 25% in each case.

Take `CC(=O)Nc1ccn(C(=O)N2CCC3(CCCN3Cc3cc4cc(C(=O)O)ccc4[nH]3)CC2)n1` [Example 49, 2-((8-(3-Acetamido-1H-pyrazole-1-carbonyl)-1,8-diazaspiro[4.5]decan-1-yl)methyl)-1H-indole-5-carboxylic acid]: the inhibition at 1 µM in assay [1] lay in the range of 25 to 50%; in assay [2], 0 to 25%; in assay [3], 50 to 75%; in assay [4] it was 0 to 25%.

For `CN(Cc1ccc(N2CCCC2)cc1C(F)(F)F)[C@H]1C[C@@H]2CN(C(=O)n3ccc(NS(C)(=O)=O)n3)C[C@@H]2C1` [Example 50, N-(1-((3aR,5r,6aS)-5-(Methyl(4-(pyrrolidin-1-yl)-2-(trifluoromethyl)benzyl)amino)octahydrocyclopenta[c]pyrrole-2-carbonyl)-1H-pyrazol-3-yl)methanesulfonamide], the inhibition at 1 µM was 50 to 75% in assay [1], 0 to 25% in assay [2], 50 to 75% in assay [3] and > 75% in assay [4].

As usually defined, the IC50 is the concentration at which inhibition is half-maximal. A low value points to greater potency. As for `CN(Cc1cc(Cl)ccc1C(F)(F)F)[C@H]1C[C@@H]2CN(C(=O)n3ccc(NS(C)(=O)=O)n3)C[C@@H]2C1` [Example 51, N-(1-((3aR,5r,6aS)-5-((5-Chloro-2-(trifluoromethyl)benzyl)(methyl)amino)octahydrocyclopenta[c]pyrrole-2-carbonyl)-1H-pyrazol-3-yl)methanesulfonamide], the inhibition at 1 µM in assay [1], in assay [2], in assay [3] and in assay [4] was > 75% each time. The figures for the IC50 in assay [1] and in assay [2] were < 0.1 µM and 0.1 to 1 µM, respectively.

With `CS(=O)(=O)Nc1ccn(C(=O)N2CCN(Cc3cc4ccc(C(F)(F)F)cc4s3)CC2)n1` [Example 52, N-(1-(4-((6-(Trifluoromethyl)benzo[b]thiophen-2-yl)methyl)piperazine-1-carbonyl)-1H-pyrazol-3-yl)methanesulfonamide], the inhibition at 1 µM in assay [1] was > 75%; in assay [2], 0 to 25%; in assay [3], > 75%; in assay [4] it was 0 to 25%. For the same compound, the IC50 in assay [1] was < 0.1 µM; in assay [2], 1 to 10 µM.

In the case of `CS(=O)(=O)Nc1ccn(C(=O)N2CCC3(CCCN3Cc3cc4ccc(C(F)(F)F)cc4s3)CC2)n1` [Example 53, N-(1-(1-((6-(Trifluoromethyl)benzo[b]thiophen-2-yl)methyl)-1,8-diazaspiro[4.5]decane-8-carbonyl)-1H-pyrazol-3-yl)methanesulfonamide], in assay [1], the inhibition at 10 µM was > 75%. The inhibition at 1 µM in assay [2], in assay [3] and in assay [4] was 0 to 25% each time.

Regarding `CS(=O)(=O)Nc1ccn(C(=O)N2CCN(Cc3cc4ccccc4s3)CC2)n1` [Example 54, N-(1-(4-(Benzo[b]thiophen-2-ylmethyl)piperazine-1-carbonyl)-1H-pyrazol-3-yl)methanesulfonamide], the inhibition at 1 µM was > 75% in assay [1], 0 to 25% in assay [2], > 75% in assay [3] and 0 to 25% in assay [4].

Turning to `CS(=O)(=O)Nc1ccn(C(=O)N2CCN(Cc3cc4ccccc4[nH]3)CC2)n1` [Example 55, N-(1-(4-((1H-Indol-2-yl)methyl)piperazine-1-carbonyl)-1H-pyrazol-3-yl)methanesulfonamide], the inhibition at 1 µM in assay [1] was > 75%; in assay [2], 0 to 25%; in assay [3], > 75%; in assay [4], 0 to 25%.

`CS(=O)(=O)Nc1ccn(C(=O)N2CCN(Cc3nc4ccccc4s3)CC2)n1` [Example 56, N-(1-(4-(Benzo[d]thiazol-2-ylmethyl)piperazine-1-carbonyl)-1H-pyrazol-3-yl)methanesulfonamide]: the inhibition at 1 µM was > 75% in assay [1], 0 to 25% in assay [2], > 75% in assay [3] and 0 to 25% in assay [4].

Regarding `Cc1c(CN2CCN(C(=O)n3ccc(NS(C)(=O)=O)n3)CC2)sc2ccccc12` [Example 57, N-(1-(4-((3-Methylbenzo[b]thiophen-2-yl)methyl)piperazine-1-carbonyl)-1H-pyrazol-3-yl)methanesulfonamide], the inhibition at 1 µM was > 75% in assay [1], 0 to 25% in assay [2], > 75% in assay [3] and 0 to 25% in assay [4].

As for `CS(=O)(=O)Nc1ccn(C(=O)N2CCC3(CCN(Cc4cc(N5CCOCC5)cc(C(F)(F)F)c4)C3)CC2)n1` [Example 59, N-(1-(2-(3-Morpholino-5-(trifluoromethyl)benzyl)-2,8-diazaspiro[4.5]decane-8-carbonyl)-1H-pyrazol-3-yl)methanesulfonamide], the inhibition at 1 µM is > 75% in assay [1], 0 to 25% in assay [2], > 75% in assay [3] and 0 to 25% in assay [4].

With `CS(=O)(=O)Nc1ccn(C(=O)N2CCC3(CCN(Cc4ccc(C(F)(F)F)cc4N4CCC(F)CC4)CC3)C2)n1` [Example 60, N-(1-(8-(2-(4-Fluoropiperidin-1-yl)-4-(trifluoromethyl)benzyl)-2,8-diazaspiro[4.5]decane-2-carbonyl)-1H-pyrazol-3-yl)methanesulfonamide], the inhibition at 1 µM was > 75% in assay [1], 0 to 25% in assay [2], > 75% in assay [3] and 0 to 25% in assay [4].

`Cc1nc(Cl)ccc1CN1CCN(C(=O)n2ccc(NS(C)(=O)=O)n2)CC1` [Example 61, N-(1-(4-((6-Chloro-2-methylpyridin-3-yl)methyl)piperazine-1-carbonyl)-1H-pyrazol-3-yl)methanesulfonamide]: the inhibition at 1 µM in assay [1] fell in the range of 25 to 50%; in assay [2], 0 to 25%; in assay [3] it was 50 to 75%; in assay [4], 0 to 25%.

Consider `CS(=O)(=O)Nc1ccn(C(=O)N2CCC3(CCN(Cc4ccc(C(F)(F)F)cc4N4CCOCC4)C3)CC2)n1` [Example 62, N-(1-(2-(2-Morpholino-4-(trifluoromethyl)benzyl)-2,8-diazaspiro[4.5]decane-8-carbonyl)-1H-pyrazol-3-yl)methanesulfonamide], for which the inhibition at 1 µM is > 75% in assay [1], 0 to 25% in assay [2], > 75% in assay [3] and 0 to 25% in assay [4].

In the case of `CS(=O)(=O)Nc1ccn(C(=O)N2CCC3(CCN(Cc4cc(N5CCCC5)cc(C(F)(F)F)c4)C3)CC2)n1` [Example 64, N-(1-(2-(3-(Pyrrolidin-1-yl)-5-(trifluoromethyl)benzyl)-2,8-diazaspiro[4.5]decane-8-carbonyl)-1H-pyrazol-3-yl)methanesulfonamide], the inhibition at 1 µM in assay [1] is > 75%; in assay [2], 0 to 25%; in assay [3], > 75%; in assay [4], 0 to 25%.

`Cc1c(CN2CCN(C(=O)n3ccc(NS(C)(=O)=O)n3)CC2)[nH]c2c(Cl)cccc12` [Example 65, N-(1-(4-((7-Chloro-3-methyl-1H-indol-2-yl)methyl)piperazine-1-carbonyl)-1H-pyrazol-3-yl)methanesulfonamide]: the inhibition at 1 µM in assay [1] was > 75%; in assay [2], 0 to 25%; in assay [3], > 75%; in assay [4] it was 0 to 25%.

Consider `CS(=O)(=O)Nc1ccn(C(=O)N2CCN(Cc3cc4cc(Cl)ccc4s3)CC2)n1` [Example 66, N-(1-(4-((5-Chlorobenzo[b]thiophen-2-yl)methyl)piperazine-1-carbonyl)-1H-pyrazol-3-yl)methanesulfonamide], for which the inhibition at 1 µM was > 75% in assay [1], 0 to 25% in assay [2], > 75% in assay [3] and 0 to 25% in assay [4].

For `CS(=O)(=O)Nc1ccn(C(=O)N2CCN(Cc3cc4c(Cl)cccc4s3)CC2)n1` [Example 67, N-(1-(4-((4-Chlorobenzo[b]thiophen-2-yl)methyl)piperazine-1-carbonyl)-1H-pyrazol-3-yl)methanesulfonamide], the inhibition at 1 µM in assay [1] was > 75%; in assay [2] it was 25 to 50%; in assay [3], > 75%; in assay [4] it was 25 to 50%.

Regarding `CS(=O)(=O)Nc1ccn(C(=O)N2CCC3(CCN(Cc4cc(Cl)cc(N5CCCC5)c4)C3)CC2)n1` [Example 68, N-(1-(2-(3-Chloro-5-(pyrrolidin-1-yl)benzyl)-2,8-diazaspiro[4.5]decane-8-carbonyl)-1H-pyrazol-3-yl)methanesulfonamide], the inhibition at 1 µM in assay [1] was > 75%; in assay [2], 0 to 25%; in assay [3], > 75%; in assay [4], 0 to 25%.

As for `C#Cc1ccc(CN2CCN(C(=O)n3ccc(NS(C)(=O)=O)n3)CC2)cc1` [Example 69, N-(1-(4-(4-Ethynylbenzyl)piperazine-1-carbonyl)-1H-pyrazol-3-yl)methanesulfonamide], the inhibition at 10 µM in assay [1] was > 75%. Moreover, the inhibition at 1 µM in assay [2], in assay [3] and in assay [4] was 0 to 25% throughout.
